Results on 45 compounds are retold here after patent publication US9464064B2, “HCV helicase inhibitors and methods of use thereof” (University of Kansas, priority 2011, dated 2016).

This assay addresses T1, HCV NS3 helicase NS3h_1b(con1) (Hepatitis C virus genotype 1b, UniProt Q9WMX2).
T1 construct: truncated C-terminally His-tagged NS3 proteins lacking the N-terminal protease, called NS3h; His-tag (C); made in house
Kind of assay: MBHA screen of NCI mechanistic set library at 20 μM (percent inhibition, compound interference). The following applies: compounds at 20 μM; for Inh. (%) (Inhibition): calculated from Equation 1. The assay is classed as biochemical. A digest of the protocol:
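Molecular beacon-based DNA unwinding assay; compounds screened at 20 μM in triplicate, with DMSO-only negative and 500 nM dT20 positive controls. Fluorescence (ex 643/em 670 nm) was read before and 30 min after adding ATP to 1 mM. Percent inhibition came from the change relative to DMSO controls; interference from pre-ATP fluorescence versus DMSO controls.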

Setting [1] is: assay interference calculated with Equation 2 (fluorescence vs DMSO-only controls before ATP).
[2] abbreviates: MBHA with DNA substrate, assay interference calculated with Equation 2.

Residues, ends and D or L forms follow the SMILES beside them. *: point of attachment. Cbz = O=C(OCc1ccccc1)*; CH2Cl = ClC*

T1 sequence (Q9WMX2 1192-1657): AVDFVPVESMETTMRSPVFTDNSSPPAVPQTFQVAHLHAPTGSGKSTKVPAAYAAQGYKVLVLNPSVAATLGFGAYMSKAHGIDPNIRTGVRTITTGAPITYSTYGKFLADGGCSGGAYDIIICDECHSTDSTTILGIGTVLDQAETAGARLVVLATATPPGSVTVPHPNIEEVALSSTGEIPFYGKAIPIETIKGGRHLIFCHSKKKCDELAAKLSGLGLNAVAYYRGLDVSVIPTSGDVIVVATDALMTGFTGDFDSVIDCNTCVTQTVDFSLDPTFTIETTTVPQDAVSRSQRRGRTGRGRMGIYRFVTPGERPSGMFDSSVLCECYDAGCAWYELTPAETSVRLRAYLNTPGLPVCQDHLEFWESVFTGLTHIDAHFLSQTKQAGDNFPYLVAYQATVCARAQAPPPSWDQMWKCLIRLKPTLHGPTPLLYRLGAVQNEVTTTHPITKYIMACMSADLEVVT

As to `CNC(=S)N/N=C/c1ccc([N+](=O)[O-])s1` [Compound 169543], the “Inh. (%) (Inhibition)” value (MBHA with a DNA substrate) is 9.6%. The “Int.* (Ratio) (Interference)” value under setting [1] is on record as 1.02 Ratio.
Regarding `COC(=O)C1(C)CCCC2(C)c3cc(OC)ccc3C(=O)C(Br)C12` (stereo not drawn) [Compound 169600], under setting [2], the “Int.* (Ratio) (Interference)” value is recorded as 0.90 Ratio. The “Inh. (%) (Inhibition)” value (MBHA with DNA substrate) is on record as 0.0%.
For `OCCNCCN1CCN(CCCN2c3ccccc3Sc3ccc(C(F)(F)F)cc32)CC1` [Compound 169676], in that order: 0.87 Ratio and 18.3%.
For `CC(C)C[C@H]1C(=O)N2CCC[C@H]2[C@]2(O)O[C@](NC(=O)[C@@H]3C=C4c5cccc6[nH]c(Br)c(c56)C[C@H]4N(C)C3)(C(C)C)C(=O)N12.CS(=O)(=O)O` [Compound 169774], in that order: 0.92 Ratio and −15.6%.
For `C[C@H](CN1CC(=O)NC(=O)C1)N1CC(=O)NC(=O)C1` [Compound 169779], in that order: 1.12 Ratio and −9.4%.
As for `O=c1[nH]c2ccccc2n1C1CCN(CCCC(c2ccc(F)cc2)c2ccc(F)cc2)CC1` [Compound 170984], the “Int.* (Ratio) (Interference)” value under setting [2] was 0.95 Ratio. Also, the “Inh. (%) (Inhibition)” value (MBHA with DNA substrate) is 4.7%.
For `COC(=O)[C@@]12OC[C@]34[C@H]([C@@H](O)[C@@H]1O)[C@@]1(C)CC(=O)C(O)=C(C)[C@@H]1C[C@H]3OC(=O)[C@H](OC(=O)C=C(C)C)[C@@H]24` [Compound 172924], in that order: 1.01 Ratio and 13.3%.
For `CC(=O)[O][Pb]([O]C(C)=O)([c]1ccccc1)[c]1ccccc1` [Compound 173046], in that order: 0.93 Ratio and −12.2%.
For `CC(C)CC(NC(=O)OCc1ccccc1)C(=O)NC(Cc1ccccc1)C(=O)CCl` (stereo not drawn) [Compound 173904] (Cbz-Leu-Phe-CH2Cl; configuration not given here), in that order: 1.09 Ratio and 1.4%.
Regarding `CC(=O)NC(CC(C)C)C(=O)NC(Cc1ccccc1)C(=O)CCl` (stereo not drawn) [Compound 173905] (Ac-Leu-Phe-CH2Cl; configuration not given here), the “Int.* (Ratio) (Interference)” value under setting [2] is listed as 1.11 Ratio. Moreover, the “Inh. (%) (Inhibition)” value (MBHA with DNA substrate) is on record as −12.0%.
For `CN(Cc1cnc2nc(N)nc(N)c2n1)c1ccc(C(=O)NC(CCC(=O)O)C(=O)O)c2ccccc12` (stereo not drawn) [Compound 174121], in that order: 0.91 Ratio and −13.1%.
Turning to `[Cl][Hg][c]1ccc2ccccc2c1` [Compound 174163], the “Int.* (Ratio) (Interference)” value under setting [2] was 1.00 Ratio. Moreover, the “Inh. (%) (Inhibition)” value (MBHA with DNA substrate) was −18.5%.
For `CC(=O)[O][Hg][c]1c(C)c(C)c(C)c(C)c1C` [Compound 174176], in that order: 1.04 Ratio and 6.0%.
As to `CCCC(=O)[O-].[Na+]` [Compound 174280], under setting [2], the “Int.* (Ratio) (Interference)” value is recorded as 0.90 Ratio. In addition, the “Inh. (%) (Inhibition)” value (MBHA with DNA substrate) was 1.1%.
As for `N=N/C(=C\c1c(O)[nH]c2ccccc12)c1ccccc1` [Compound 175274], the “Inh. (%) (Inhibition)” value (MBHA with a DNA substrate) is 7.0%. In addition, under setting [1], the “Int.* (Ratio) (Interference)” value was 1.09 Ratio.
For the compound `COc1ccc(C=CC(=O)Oc2cc(O)cc(O)c2)cc1` [Compound 175296], the “Int.* (Ratio) (Interference)” value under setting [2] was 0.90 Ratio. Moreover, where the note is “MBHA with DNA substrate”, the “Inh. (%) (Inhibition)” value is on record as 4.7%.
`Cc1ccc(C2NC(=O)c3ccccc3N2)s1` (stereo not drawn) [Compound 175634]: the “Int.* (Ratio) (Interference)” value under setting [2] is reported as 0.93 Ratio. Where the note is “MBHA with DNA substrate”, the “Inh. (%) (Inhibition)” value is recorded as 1.5%.
`O=C1NC(c2cccc3ccccc23)Nc2ccc(Cl)cc21` (stereo not drawn) [Compound 175636]: the “Inh. (%) (Inhibition)” value (MBHA with a DNA substrate) is recorded as −5.0%. Also, under setting [1], the “Int.* (Ratio) (Interference)” value is given as 0.96 Ratio.
Take `N[C@H](C(=O)O)[C@H]1ON=C(Cl)[C@H]1O` [Compound 176324]: the “Inh. (%) (Inhibition)” value (MBHA with a DNA substrate) is −6.8%. For the same compound, the “Int.* (Ratio) (Interference)” value under setting [1] is 1.02 Ratio.
As for `C(=C/c1nc2ccccc2o1)/c1ccc2c(c1)OCO2` [Compound 176655], under setting [2], the “Int.* (Ratio) (Interference)” value is reported as 1.08 Ratio. Besides, where the note is “MBHA with DNA substrate”, the “Inh. (%) (Inhibition)” value is 0.3%.
Turning to `NC(N)=NCCCS(=O)(=O)Nc1ccc(Nc2c3ccccc3nc3cc([N+](=O)[O-])ccc23)cc1` [Compound 177365], under “MBHA with a DNA substrate”, the “Inh. (%) (Inhibition)” value is given as 9.2%. Besides, under setting [1], the “Int.* (Ratio) (Interference)” value was 0.49 Ratio.
As for `COc1ccc(O)c2c(=O)c3c(OC)cc4c(c3oc12)[C@@H]1C=CO[C@@H]1O4` [Compound 178249], under setting [2], the “Int.* (Ratio) (Interference)” value is given as 0.87 Ratio. Also, the “Inh. (%) (Inhibition)” value (MBHA with DNA substrate) is listed as 2.4%.
For `CC/C(=C(\c1ccccc1)c1ccc(OCCN(C)C)cc1)c1ccccc1.O=C(O)CC(O)(CC(=O)O)C(=O)O` [Compound 180973], in that order: 0.90 Ratio and 13.5%.
For `COc1ccc2cc1Oc1ccc(cc1)CC1c3c(cc(OC)c4c3Oc3cc5c(cc3O4)CCNC5C2)CCN1C` (stereo not drawn) [Compound 181486], in that order: 0.50 Ratio and 38.3%.
Turning to `CCOC(=O)NC1=C(N2CC2)C(=O)C(NC(=O)OCC)=C(N2CC2)C1=O` [Compound 182986], under setting [2], the “Int.* (Ratio) (Interference)” value was 1.18 Ratio. In addition, for the setting “MBHA with DNA substrate”, the “Inh. (%) (Inhibition)” value was −16.6%.
For `CCC[CH2][Sn]1([CH2]CCC)[S]CC[N]1S(=O)(=O)c1ccc(C)cc1` [Compound 183359], in that order: 0.83 Ratio and 13.3%.
As for `C[C@H]1O[C@@H](c2ccc3c(c2O)C(=O)C2=C(C3=O)[C@@]3(O)C(=O)C[C@](C)(O)C[C@@]3(O)C=C2)C[C@@H](O)[C@@H]1O` [Compound 184398], the “Inh. (%) (Inhibition)” value (MBHA with a DNA substrate) was −39.0%. In addition, under setting [1], the “Int.* (Ratio) (Interference)” value was 1.09 Ratio.
For the compound `C[n+]1cc2cc(O)c(O)cc2c2ccc3cc(O)c(O)cc3c21.Cl.[Cl-].c1ccncc1` [Compound 184403], the “Int.* (Ratio) (Interference)” value under setting [2] is given as 0.42 Ratio. Also, where the note is “MBHA with DNA substrate”, the “Inh. (%) (Inhibition)” value is reported as 27.4%.
As to `NC(=S)N/N=C/c1ccc(OC(=O)COc2ccccc2Cl)cn1` [Compound 185056], the “Inh. (%) (Inhibition)” value (MBHA with a DNA substrate) is 6.8%. For the same compound, the “Int.* (Ratio) (Interference)” value under setting [1] is reported as 0.90 Ratio.
For `Oc1ccc(/C=N/NC(=S)Nc2cccnc2)nc1` [Compound 185065], in that order: −26.6% and 1.11 Ratio.
For `Cc1cc(C)c(NC(=O)/C=C/c2ccccc2)c(C)c1` [Compound 191384], under setting [2], the “Int.* (Ratio) (Interference)” value is 1.07 Ratio. For the same compound, the “Inh. (%) (Inhibition)” value (MBHA with DNA substrate) is on record as −1.8%.
Regarding `Cc1ccc(NC(=O)/C=C/c2ccccc2)c(C)c1` [Compound 191389], the “Int.* (Ratio) (Interference)” value under setting [2] is listed as 1.06 Ratio. For the same compound, the “Inh. (%) (Inhibition)” value (MBHA with DNA substrate) was −2.3%.
For `Cc1c(Cl)cccc1NC(=O)/C=C/c1ccccc1` [Compound 191392], in that order: 1.10 Ratio and 2.5%.
For `Cc1cccc(Cl)c1NC(=O)/C=C/c1ccccc1` [Compound 191393], the “Inh. (%) (Inhibition)” value (MBHA with a DNA substrate) is −6.3%. The “Int.* (Ratio) (Interference)” value under setting [1] is 1.05 Ratio.
For `CC[C@@]1(O)C[C@H](O)c2c(O)c3c(c(O)c2[C@H]1C(=O)OC)C(=O)c1cccc(O)c1C3=O` [Compound 196524], the “Int.* (Ratio) (Interference)” value under setting [2] is reported as 1.02 Ratio. Besides, the “Inh. (%) (Inhibition)” value (MBHA with DNA substrate) was 3.3%.
Turning to `O=C1OC(c2ccco2)=N/C1=C\c1ccc(Cl)c(Cl)c1` [Compound 202000], the “Inh. (%) (Inhibition)” value (MBHA with a DNA substrate) is recorded as −5.7%. Under setting [1], the “Int.* (Ratio) (Interference)” value is listed as 0.99 Ratio.
With `COc1cc2c(c3oc4cccc(O)c4c(=O)c13)[C@@H]1C=CO[C@@H]1O2` [Compound 204985], under setting [2], the “Int.* (Ratio) (Interference)” value is on record as 1.05 Ratio. Moreover, the “Inh. (%) (Inhibition)” value (MBHA with DNA substrate) was 5.4%.
For `CC[C@@]1(O)C[C@H](O[C@H]2C[C@H](N(C)C)[C@H](O[C@H]3C[C@H](O)[C@H](O[C@H]4CCC(=O)[C@H](C)O4)[C@H](C)O3)[C@H](C)O2)c2c(cc3c(c2O)C(=O)c2c(O)cccc2C3=O)[C@@H]1C(=O)OC` [Compound 208734], in that order: 0.56 Ratio and 56.5%.
For `CCOC(=O)C(C)NC(=O)N(C)C12CC3CC(CC(C3)C1)C2` (stereo not drawn) [Compound 208913], in that order: 1.10 Ratio and 0.9%.
As for `CCOC(=O)CNC(=O)NC12CC3CC(CC(C3)C1)C2` [Compound 208914], the “Inh. (%) (Inhibition)” value (MBHA with a DNA substrate) is −4.1%. Besides, the “Int.* (Ratio) (Interference)” value under setting [1] is reported as 1.09 Ratio.
For `COc1ccc(C2C=C(c3ccc4c(c3)OCO4)Oc3c2c(=O)oc2ccccc32)cc1OC` (stereo not drawn) [Compound 211489], in that order: −30.1% and 0.82 Ratio.
For `CC(C)c1oc(=O)cc2c1[C@@H](O)[C@H]1OC(=O)[C@@]3(C)[C@@H](O)[C@H]4O[C@H]4[C@@]2(C)[C@@H]13` [Compound 211500], in that order: 10.6% and 0.89 Ratio.
Regarding `O=c1oc2ccccc2cc1-c1ccc([N+](=O)[O-])cc1` [Compound 215989], the “Int.* (Ratio) (Interference)” value under setting [2] was 0.82 Ratio. Further, the “Inh. (%) (Inhibition)” value (MBHA with DNA substrate) is reported as 21.9%.
Turning to `C[n+]1ccc(Nc2ccc(NC(=O)c3ccc(Nc4cc[n+](C)c5ccc([N+](=O)[O-])cc45)cc3[N+](=O)[O-])cc2)cc1.Cl` [Compound 218439], under setting [2], the “Int.* (Ratio) (Interference)” value is listed as 0.46 Ratio. The “Inh. (%) (Inhibition)” value (MBHA with DNA substrate) is on record as −8.9%.
Take `c1ccc2c(NCCCCCCCCNc3c4ccccc4nc4ccccc34)c3ccccc3nc2c1` [Compound 219734]: the “Int.* (Ratio) (Interference)” value under setting [2] is 0.26 Ratio. Moreover, the “Inh. (%) (Inhibition)” value (MBHA with DNA substrate) was 41.8%.
